# Measured values as given in the supplement of paper PMC10307832.
# Legend:
# Experiment in all cases: relative viability (nuclei count vs DMSO), 5 days (fraction); higher = more cells survive
# [1] = compound: CCC1=CN=CN=C1N2CCN(CC2)CC3=NC4=C(N3)C=C(C=C4)C(F)(F)F + Cc1nc(NC(=O)N2CCC[C@H]2C(N)=O)sc1-c1ccnc(C(C)(C)C(F)(F)F)c1 [Alpelisib] (partner 2 µM)
# Outline: (§1)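 Medians of duplicate plates are given as relative viability. That measure is the nuclei count in treated wells divided by the count in vehicle wells. Counts were taken on 4× images of lung cancer cell lines in 1536-well plates, 5 days after pin-tool dosing the day after seeding with one drug alone or a fixed anchor-drug dose plus five library-drug doses (not always all listed) in √10 steps.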
# [2] = compound: CCn1c(-c2nonc2N)nc2cnc(Oc3cccc(NC(=O)c4ccc(OCCN5CCOCC5)cc4)c3)cc21 + Nc1nc2[nH]cc(CCc3ccc(C(=O)N[C@@H](CCC(=O)O)C(=O)O)cc3)c2c(=O)[nH]1 [Pemetrexed] (partner 0.2 µM)
# Outline: as §1
# [3] = compound: CCn1c(-c2nonc2N)nc2cnc(Oc3cccc(NC(=O)c4ccc(OCCN5CCOCC5)cc4)c3)cc21 + COc1cccc2cc(-c3nc([C@H]4CC[C@H](C(=O)O)CC4)n4ncnc(N)c34)[nH]c12 [OSI-027] (partner 0.5 µM)
# Outline: as §1
# [4] = compound: CCC1=CN=CN=C1N2CCN(CC2)CC3=NC4=C(N3)C=C(C=C4)C(F)(F)F + Cc1nc(Nc2ncc(C(=O)Nc3c(C)cccc3Cl)s2)cc(N2CCN(CCO)CC2)n1 [Dasatinib] (partner 0.075 µM)
# Outline: as §1
Cell Line,relative viability ([1]; first compound 0.04 µM),relative viability ([1]; first compound 0.1265 µM),relative viability ([1]; first compound 0.4 µM),relative viability ([1]; first compound 1.265 µM),relative viability ([1]; first compound 4 µM),relative viability ([2]; first compound 0.04 µM),relative viability ([2]; first compound 0.1265 µM),relative viability ([2]; first compound 0.4 µM),relative viability ([2]; first compound 1.265 µM),relative viability ([2]; first compound 4 µM),relative viability ([3]; first compound 0.04 µM),relative viability ([3]; first compound 0.1265 µM),relative viability ([3]; first compound 0.4 µM),relative viability ([3]; first compound 1.265 µM),relative viability ([3]; first compound 4 µM),relative viability ([4]; first compound 0.04 µM),relative viability ([4]; first compound 0.1265 µM),relative viability ([4]; first compound 0.4 µM),relative viability ([4]; first compound 1.265 µM),relative viability ([4]; first compound 4 µM)
SW 1573,0.591,0.646,0.745,0.579,0.687,0.913,0.821,0.535,0.32,0.261,0.835,0.594,0.299,0.326,0.237,0.382,0.453,0.5,0.494,0.452
LOU-NH91,0.621,0.689,0.712,0.63,0.72,0.371,0.355,0.355,0.288,0.356,0.741,0.561,0.44,0.426,0.471,0.477,0.466,0.485,0.533,0.568
LXF-289,1.01,1.01,0.972,0.996,0.974,0.972,0.974,0.918,0.856,0.795,0.924,0.758,0.208,0.443,0.361,0.161,0.21,0.242,0.191,0.209
NCI-H1299,1.09,1.07,1.04,1.03,1.04,–,–,–,–,–,–,–,–,–,–,–,–,–,–,–
HARA,0.858,0.744,0.816,0.651,0.812,0.211,0.233,0.205,0.181,0.212,0.533,0.38,0.141,0.148,0.102,0.371,0.337,0.19,–,0.203
LU99A,0.524,0.527,0.53,0.568,0.585,0.227,0.167,0.168,0.163,0.158,0.298,0.254,0.227,0.259,0.225,0.718,0.511,0.458,0.602,0.7
201T,1,0.988,0.995,0.902,1.06,0.356,0.347,0.343,0.263,0.303,0.857,0.773,0.38,0.674,0.806,0.527,0.565,0.559,0.568,0.541
HCC-827,1,0.926,0.969,0.988,0.956,0.27,0.261,0.266,0.267,0.285,0.961,0.855,0.78,0.707,0.756,0.323,0.298,0.313,0.364,0.355
NCI-H1666,0.877,0.913,0.903,0.851,0.95,0.875,0.859,0.926,0.828,0.606,1.02,0.995,0.74,0.796,0.668,0.777,0.685,0.742,0.783,0.865
